Experimental data reported in patent publication EP0611765A1, “2-(Imidazol-1-yl)-3-heteroarylpropylidene-aminoxyalkanoic acid derivatives” (PHARMACIA S.p.A., priority 1993, dated 1994).

What was measured:
TxA₂ Synthase [1] = target: T1, TxA₂ Synthase (Rattus norvegicus, UniProt P49430); test: In vitro effects on TxB₂ production in rat whole blood during clotting (RIA); type: cell-based; details: result in words
T1 construct: Blood was withdrawn from the abdominal aorta of the animals under light ether anesthesia; from tissue; host or cells: rat whole blood (clotting; platelets)
T1 sequence (P49430 1-533): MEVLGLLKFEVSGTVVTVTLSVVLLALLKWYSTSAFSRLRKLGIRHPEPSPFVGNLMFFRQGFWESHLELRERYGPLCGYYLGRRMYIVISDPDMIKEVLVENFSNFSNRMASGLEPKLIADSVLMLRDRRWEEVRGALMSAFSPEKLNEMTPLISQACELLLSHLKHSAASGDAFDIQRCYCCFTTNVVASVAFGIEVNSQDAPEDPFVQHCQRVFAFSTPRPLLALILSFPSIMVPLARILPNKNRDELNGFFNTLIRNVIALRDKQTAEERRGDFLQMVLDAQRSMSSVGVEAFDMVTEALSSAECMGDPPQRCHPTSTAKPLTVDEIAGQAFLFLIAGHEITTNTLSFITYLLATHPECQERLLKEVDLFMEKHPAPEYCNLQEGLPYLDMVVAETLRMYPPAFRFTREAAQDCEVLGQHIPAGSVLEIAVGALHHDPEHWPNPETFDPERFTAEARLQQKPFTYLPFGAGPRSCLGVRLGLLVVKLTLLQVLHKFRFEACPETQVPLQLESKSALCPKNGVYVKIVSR
Procedure: The compounds of formula (I) were for example tested for their ability to inhibit TxA₂ Synthase activity (as reflected by TxB₂ generated in whole blood during clotting or in isolated glomeruli) in vitro in the rat.
The in vitro experiments were carried out as follows: The effect of the compounds on TxA₂ synthesis was evaluated in serum.
Blood was withdrawn from the abdominal aorta of the animals under light ether anesthesia.
Samples were then allowed to clot for 1 h at 37°C, centrifuged at 3000 rpm for 10 min, serum collected and stored at -20°C until assayed. TxB₂ levels were determined by RIA according to previously described procedures [Patrono et al. - Thromb.

TxA₂ synthase [2] = target: T2, TxA₂ synthase (Homo sapiens, UniProt P24557); details: statement on the known compound; cited from earlier work
T2 sequence (P24557 1-533): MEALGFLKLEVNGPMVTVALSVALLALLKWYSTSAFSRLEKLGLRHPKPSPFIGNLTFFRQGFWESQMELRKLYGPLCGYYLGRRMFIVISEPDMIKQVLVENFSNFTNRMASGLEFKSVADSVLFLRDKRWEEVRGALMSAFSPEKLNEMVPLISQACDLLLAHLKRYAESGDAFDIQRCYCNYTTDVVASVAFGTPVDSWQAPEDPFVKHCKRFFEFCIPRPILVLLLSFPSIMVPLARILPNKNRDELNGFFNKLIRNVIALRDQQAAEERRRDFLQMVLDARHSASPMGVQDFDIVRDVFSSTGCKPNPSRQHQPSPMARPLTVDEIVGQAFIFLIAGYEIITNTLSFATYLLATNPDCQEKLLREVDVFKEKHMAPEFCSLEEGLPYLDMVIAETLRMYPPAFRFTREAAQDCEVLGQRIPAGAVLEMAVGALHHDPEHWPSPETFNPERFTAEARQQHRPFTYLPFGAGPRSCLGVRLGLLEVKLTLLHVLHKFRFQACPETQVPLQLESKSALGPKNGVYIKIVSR

| inhibitory activity on TxA₂ synthesis (TxA₂ Synthase [1]) | Structure (SMILES) | TxA₂ synthase inhibitory activity (TxA₂ synthase [2]) |
| --- | --- | --- |
| marked inhibitory activity | O=C(O)CCCCO/N=C(\C1CCCCC1)C(Cc1cnccn1)n1ccnc1 (racemic) [FCE 27751, (±)-(E)-5-[2-pyrazinylmethyl-2-(imidazol-1-yl)-1-cyclohexylethylidene]aminoxypentanoic acid] |  |
|  | O=C(O)COc1ccc(CCNS(=O)(=O)c2ccccc2)cc1 [BM 13177, Sulotroban] | devoid of TxA₂ synthase inhibitory activity |
